Experimental findings from patent US20250312320A1, “METHOD AND TREATMENT FOR OSTEOARTHRITIS AND DISEASES OF CHONDROCYTE HYPERTROPHY” (The Royal Veterinary College, priority 2022, published 2025) are described below.

“Also recorded” adds a separate entry of the source.

The subject of one assay is ATDC5 micromasses. Briefly: Epigenetic library screen on miniaturised ATDC5 micromasses (alcian blue / alizarin red). It counts as cell-based, mouse. The source says:
An epigenetic library consisting of 226 known epigenetic modulator compounds was used to screen against ATDC5 high density micromass cultures to identify any compounds that have an inhibitory effect on matrix mineralisation (catabolic chondrocyte) whilst maintaining and/or promoting healthy extracellular matrix deposition (anabolic chondrocyte). The opposite may be used for identifying molecules that accelerate endochondral ossification for fracture repair i.e. promotes matrix mineralisation.
In the developed screening method, 5.4×10^4 cells in a total volume of 2 μl standard growth media (DMEM-F12, 5% FBS, 1% Ab/Am 10 μg/ml human transferrin, 3×10^−8 M sodium selenite) were seeded onto single wells of a 96-well plate and incubated at 37° C., 5% CO2 in a humidified incubator for 2 hours to allow for cell adherence. 100 μl of differentiation media DMEM-F12, 5% FBS, 1% Ab/Am, 5 μg/ml human transferrin, 1×ITS) containing a single compound was added to each well.
Plates were seeded in duplicate to allow for observation each compound has on glycosaminoglycan and mineral deposition at the end of the culture. This enabled for one 96-well plate to screen up to 96 compounds individually. Multiple plates were set up at the same time allowing the entire library to be screened in parallel. […]
On day 14, culture plates were fixed with 95% ice-cold methanol for 25 minutes and each compound treated well stained with either 1% alcian blue pH 2.5, a stain for glycosaminoglycans indicative of healthy ECM or 1% alizarin red pH 4.2, a stain for mineralisation (calcium) indicative of chondrocyte hypertrophy observed in cartilage disease. Alcian blue stained wells were leached with 8M guanidine hydrochloride and alizarin red leached with 10% cetylpyridinium chloride to quantify staining by absorbance 650 nm and 570 nm, respectively. Leached stain absorbances were plotted on GraphPad Prism for each compound for both alizarin red and alcian blue. To identify hits, the alcian blue:alizarin red ratio was plotted and readings higher than the control group ratios were classified as hits. […]

Assay [1] deals with STR/Ort mouse tibial subchondral bone. Briefly: STR/Ort mouse 12 week study: microCT of subchondral bone. It counts as in vivo. Conditions: 5 mg/kg oral intermittently, 12 weeks, N=3/group. On the procedure:
Following the pilot study, a larger in vivo study using the STR/Ort OA mouse model was conducted. […]
On week 12 mice were sacrificed and hind limbs were fixed in 4% PFA for 48 hours before storing in 70% EtOH. Micro computed tomography (μCT) scans were carried out on hind limbs to analyse MSC2530818 effects on bone. Samples were wrapped in plastic film before scanning to prevent drying and scanned using the Skyscan 1172F (Bruker). Whole limbs were scanned with X-ray settings 50 kV and 200 μA, using an aluminum 0.5 mm filter, 960 ms exposure time and 5 μm pixel size. Scanned images were reconstructed into tomograms using NRecon 1.7.3.1 (Bruker) using a reconstruction threshold with a minimum value of −1000 and maximum value of 9486 in Hounsfield units and repositioned using Dataviewer 1.5.4 (Bruker). Tibial subchondral bone regions were manually segmented and analysed using CTAn 1.18.4 (Bruker).

Where [2] appears, read: compound present 14 days, compared to negative control BI1374 and DMSO.

As to `CN(C)C(=O)Cn1cc(-c2ccc(-c3cncc4ccccc34)cc2)cn1` [BI1347], in the assay with ATDC5 micromasses (setting [2]), the “glycosaminoglycan (GAG) deposition (alcian blue)” value is “promotes glycosaminoglycan (GAG) deposition” and the “mineralisation (alizarin red)” value was “reduces mineralisation”. Besides, the “alcian blue:alizarin red absorbance ratio (hit identification)” value in the assay on ATDC5 micromasses (vs window of DMSO control ratios) is recorded as “modulator of endochondral ossification”.

For `Cc1n[nH]c2ncc(C(=O)N3CCC[C@H]3c3ccc(Cl)cc3)cc12` [MSC2530818], in assay [1], the “subchondral bone surface area vs DMSO” value is listed as “did not observe an alteration; also recorded: no difference”, the “subchondral bone surface density vs DMSO” value is “did not observe an alteration; also recorded: no difference” and the “subchondral bone volume/total volume (BV/TV) vs DMSO” value is “did not observe an alteration; also recorded: no difference”.
